Source: publication PMC6956362 (ACS Medicinal Chemistry Letters, 2019)

What was measured:
[1] = Stability in PBS, RP-HPLC analysis; type: physicochemical; details: pH 7.4, 22 °C, up to 48 h
CHO-hNTS1R cells = assay: Confocal microscopy at live CHO-hNTS1R cells; type: cell-based, Chinese hamster; details: for unspecific binding: 22–25 °C, in the presence of 1 (100-fold excess)

Row | Structure (SMILES) | stability [1] | unspecific binding (CHO-hNTS1R cells) | cellular uptake (CHO-hNTS1R cells; 200 nM, 22-25 °C, CHO-hNTS1R cells)
1 | CC[C@H](C)[C@H](NC(=O)[C@H](Cc1ccc(O)cc1)NC(=O)[C@@H]1CCCN1C(=O)[C@H](CCCNC(=N)N)NC(=O)[C@@H](N)CCCNC(=N)NC(=O)NCCCCNC(=O)CCCCCN1\C(=C/C=C/C=C/C2=[N+](CCCCS(=O)(=O)[O-])c3ccccc3C2(C)C)C(C)(C)c2cc(S(=O)(=O)O)ccc21)C(=O)N[C@@H](CC(C)C)C(=O)O [compound 6, N-(N-[4-{N-(6-[3,3-Dimethyl-6-sulfonato-2-{5-(3,3-dimethyl-1-[4-sulfonatobutyl]-3H-indol-1-ium-2-yl)penta-2,4-dien-1-ylidene}indolin-1-yl]hexanoyl)amino}butyl]aminocarbonyl)-Arg-Arg-Pro-Tyr-Ile-Leu bis(hydrotrifluoroacetate)] | excellent stabilities | very low | 
2 | CC[C@H](C)[C@H](NC(=O)[C@H](Cc1ccc(O)cc1)NC(=O)[C@@H]1CCCN1C(=O)[C@H](CCCNC(=N)N)NC(=O)[C@@H](N)CCCNC(=N)NC(=O)NCCOCCOCCNC(=O)CCCCCN1\C(=C/C=C/C=C/C2=[N+](CCCCS(=O)(=O)[O-])c3ccccc3C2(C)C)C(C)(C)c2ccccc21)C(=O)N[C@@H](CC(C)C)C(=O)O [compound 11] | excellent stabilities | very low | 
3 | CC[C@H](C)[C@H](NC(=O)[C@H](Cc1ccc(O)cc1)NC(=O)[C@@H]1CCCN1C(=O)[C@H](CCCNC(=N)N)NC(=O)[C@@H](N)CCCNC(=N)NC(=O)NCCOCCOCC[n+]1c(C)cc(/C=C/C=C/c2ccc(N(C)C)cc2)cc1C)C(=O)N[C@@H](CC(C)C)C(=O)O [compound 14] | minor decomposition after incubation times >24 h | very low | 
4 | CC[C@H](C)[C@H](NC(=O)[C@H](Cc1ccc(O)cc1)NC(=O)[C@@H]1CCCN1C(=O)[C@H](CCCNC(=N)NC(=O)NCCOCCOCCNC(=O)CCCCCN1/C(=C/C=C/C=C/C2=[N+](CCCCS(=O)(=O)[O-])c3ccccc3C2(C)C)C(C)(C)c2cc(S(=O)(=O)O)ccc21)NC(=O)[C@@H](N)CCCNC(=N)N)C(=O)N[C@@H](CC(C)C)C(=O)O [compound 17] | excellent stabilities |  | 
5 | CCNC(=O)CCCCCN1/C(=C/C=C/C=C/C2=[N+](CCCCS(=O)(=O)[O-])c3ccccc3C2(C)C)C(C)(C)c2cc(S(=O)(=O)O)ccc21 [compound 20] |  |  | no uptake
